According to patent US9595012B2, “Method for improving the environmental impact of formulated products” (Johnson & Johnson Consumer Inc., priority 2010, dated 2017):

Legend:
algae [1] = test: Acute aquatic toxicity, aquatic plant/primary producer, 50% inhibition in growth rate; settings: scale 0-100, from EC50 by Table 5
fish [2] = test: Acute aquatic toxicity, vertebrate/secondary consumer, 50% lethality; settings: scale 0-100, from LC50 by Table 5
water flea [3] = settings: 50% immobilization, empirical acute study; cited from earlier work
fish [4] = settings: 50% lethality, empirical acute study; cited from earlier work
algae [5] = settings: 50% inhibition in growth rate, empirical acute study; cited from earlier work
water flea [6] = test: Acute aquatic toxicity, invertebrate/primary consumer, 50% immobilization; settings: scale 0-100, from EC50 by Table 5
aquatic organisms = test: Overall toxicity scoring (minimum organism-specific toxicity score); settings: scale 0-100; minimum of the organism-specific scores
Experimental: Using the linear scoring scale in Table 5 (below), each of the three organism L(E)C50 values (i.e., LC50 or EC50 values) are transformed to an organism-specific toxicity score for the ingredient. If the organism-specific toxicity score is based on an estimated L(E)C50 value rather than an empirical L(E)C50 value, that score is reduced by an uncertainty penalty (e.g., 5 points).
The overall ingredient toxicity score is determined as the minimum organism-specific toxicity score. If no score could be determined for one class of aquatic indicator organism (i.e., primary producer, primary consumer, secondary consumer), the overall ingredient toxicity score is reduced by an uncertainty penalty (e.g., 5 points). If no score could be determined for two classes of aquatic indicator organisms, the overall ingredient score is reduced by a larger uncertainty penalty (e.g., 10 points).
The process used for ingredients that are organic compounds is also used for ingredients that are inorganic compounds with the following exceptions: (1) only empirical data are considered, as models for predicting the aquatic toxicity of metals are not widely available; (2) the toxicity of the ingredient and all plausible environmental degradants are calculated. The lowest Toxicity score among the ingredient and its plausible environmental degradants is assigned as the final Toxicity score for the ingredient.

SMILES	Aquatic Plant toxicity score (algae [1])	Fish toxicity score (fish [2])	Invertebrate EC50 (water flea [3])	Fish LC50 (fish [4])	Aquatic Plant EC50 (algae [5])	Invertebrate toxicity score (water flea [6])	Toxicity score (aquatic organisms)
OCC(O)CO [Glycerin]	100	100	10,000 mg/L	5,000 mg/L	46,000 mg/L	100	100
[Zn+2] [Zn^2+]	–	–	–	–	–	–	zero
[O]=[Zn] [zinc oxide]	–	–	–	–	–	–	zero
